Test results published in patent US20250127728A1, “Constrained Ionizable Cationic Lipids and Lipid Nanoparticles” (CAPSTAN THERAPEUTICS, INC., priority 2023, published 2025).
“Also recorded” adds a separate entry of the source. Where two headings read alike, the source gives them in different places. Values belong to the compound of their own block, whether it stands above or below them.

What was measured:
[1] = apparent or measured pKa of ionizable lipid in the lipid nanoparticle, TNS assay; format: physicochemical
Experimental: The apparent or measured pKa of ionizable lipid in the lipid nanoparticle was determined using 6-(p-toluidino)-2-naphthalenesulfonic acid sodium salt (TNS salt, Toronto Research Chemicals, Toronto, ON, Canada). Lipid nanoparticles were diluted in 1×Dulbecco's PBS to a concentration of 1 mM total lipids. TNS salt was prepared as a 1 mg/mL stock solution in DMSO and then further diluted using distilled water to a working solution of 60 μg/mL ([…]). Diluted lipid nanoparticle samples were further diluted to 90 μM total lipids in 165 μL of buffered solution containing 10 mM HEPES, 10 mM MES, 10 mM ammonium acetate, 130 mM NaCl, and final TNS concentration of 1.33 μg/mL (4 μM) with the pH ranging from 3.5 to 12.2. Following pipette mixing and incubation at room temperature in the dark for 15 min, fluorescence intensity was measured at room temperature in a BioTek Synergy H1 plate reader using excitation and emission wavelengths of 321 and 445 nm, respectively. The fluorescence signal was blank subtracted and plotted as a function of the pH, then analyzed using a nonlinear (Boltzmann) regression analysis with the apparent pKa determined as the pH giving rise to half maximal fluorescence intensity as calculated by the Henderson-Hasselbalch equation.

[2] = test system: luciferase mRNA expression in liver, spleen and other organs; test: luciferase biodistribution (organ bioluminescence) of LNP and CD5-targeted tLNP; format: in vivo, C57Bl/6 mice; conditions: 2 μg mRNA/animal
Experimental: LNP and tLNP with the F9 and F50 composition were prepared as example 66 described, except the payload consisted of mRNA encoding luciferase (SEQ ID NO. 4).
Eight-week-old female C57BI)6 mice (Charles River Laboratories) were intravenously injected with […] or F50 LNPs or CD5-targeted tLNPs encapsulating mRNA encoding luciferase at a dose of 2 μg mRNA/animal via the tail vein. At 6 hours post-injection, prone and supine bioluminescence images were collected from all mice (FIGS. 8A-8B). Following whole-animal imaging, the mice were sacrificed, and the following tissues were collected: liver, spleen, lung, kidneys (both), heart, bone marrow (femur), lymph nodes (left and right inguinal), and brain. Tissues were placed into luciferin pre-filled black polystyrene plates with spacing between tissues, and bioluminescent images were collected at 6 hours and 24 hours post-injection (FIGS. 8C-8D, respectively).

[3] = tolerability of F50 LNP: liver enzymes, acute phase proteins, cytokines; format: in vivo, Sprague Dawley rats; conditions: rats, intravenous, up to 8 mg/kg
[4] = tolerability of LNP-containing compositions in rat (general statements); conditions: tLNP, single doses
[5] = test system: liver Kupffer cells (CD45+/CD11+ liver cells); test: in vivo transfection with mCherry mRNA by CD5-targeted tLNP, liver Kupffer cells; conditions: C57BL/6 mice, 10 μg mRNA tail vein, 24 hours
Experimental: (§1) To assess the ability of a constrained ionizable cationic lipids to facilitate in vivo transfection of T cells with mCherry mRNA (SEQ ID NO. 5), tLNP incorporating CICL-207, or for comparison, CICL-1, and conjugated to an anti-mouse CD5 antibody were prepared and administered to C57BL/6 mice. The tLNP comprised either CICL-207 or CICL-1, DSPC, cholesterol, either DMG-PEG(2000) or DSG-PEG(2000), and DSPE-PEG(2000)-maleimide in the proportions indicated in Table 7 (below) and an N/P ratio of 6. CICL-1 has the structure:
Briefly, to prepare the tLNP, N1-methylpseudouridine (m1ψ)-substituted mCherry mRNA was encapsulated in LNP using a self-assembly process in which an aqueous solution of mRNA at pH 3.5 was rapidly mixed with a solution of lipids dissolved in ethanol, then followed by stepwise phosphate and Tris buffer dilution and tangential flow filtration (TFF) purification. Then an anti-CD5 mAb was conjugated to the above LNP to generate tLNP. […]
Further ionizable cationic lipids according to Formula M2 were incorporated into tLNP and the ability of the tLNP to transfect cells in vivo assessed essentially as described in the preceding Example. Their physicochemical properties as determined in various experiments are compiled in Table 10.

splenic T cells = test: in vivo transfection with mCherry mRNA by CD5-targeted tLNP, splenic T cells; conditions: C57BL/6 mice; for effect of ionizable cationic lipid content (50%, 58%, 62%, 65%) on transfection rate / performance of tLNP: transfection rate and expression level (MESF): in words; for transfection rate in spleen T cells: 10 μg mRNA tail vein, 24 hours
Experimental: as §1
Briefly, to prepare the tLNP, N1-methylpseudouridine (m1ψ)-substituted mCherry mRNA was encapsulated in LNP using a self-assembly process in which an aqueous solution of mRNA at pH 3.5 was rapidly mixed with a solution of lipids dissolved in ethanol, then followed by stepwise phosphate and Tris buffer dilution and tangential flow filtration (TFF) purification. Then an anti-CD5 mAb was conjugated to the above LNP to generate tLNP. Purified rat anti-mouse CD5 antibody, clone 53-7.3 (BioLegend), was coupled to LNP via N-succinimidyl S-acetylthioacetate (SATA)-maleimide conjugation chemistry. Briefly, LNPs with DSPE-PEG(2000)-maleimide incorporated were formulated and stored at 4° C. on the day of conjugation. The antibody was modified with SATA (Sigma-Aldrich) to introduce sulfhydryl groups at accessible lysine residues allowing conjugation to maleimide. SATA was deprotected using 0.5 M hydroxylamine followed by removal of the unreacted components by G-25 Sephadex Quick Spin Protein columns (Roche Applied Science, Indianapolis, IN). The reactive sulfhydryl group on the antibody was then conjugated to maleimide moieties on the LNPs using thioether conjugation chemistry. Purification was performed using Sepharose CL-4B gel filtration columns (Sigma-Aldrich). tLNPs (LNPs conjugated with a targeting antibody) were frozen at −80° C.
The mice were administered tLNPs containing 10 μg of mRNA by tail vein injection and tissue was harvested 24 hours later. […] These same trends have been observed with tLNP comprising CICL-1 as the ionizable lipid (data not shown). The tLNP comprising 58% ionizable cationic lipid had similarly low transfection rates (<4%) for CD45^− liver cells (hepatocytes)(FIG. 1B). […]

[6] = apparent or measured pKa of ionizable lipid in the lipid nanoparticle, TNS assay; format: physicochemical; conditions: predicted from c-pKa and measured pKa of CICL-207
[7] = Table 11, in tLNP formulation, read-out: Measured pKa
[8] = read-out: measured pKa (in tLNP formulation)

Structure (SMILES): CCCCCCCCC(=O)OCC(COC(=O)CCCCCCCC)CC(=O)OC[C@@H]1C[C@@H](OC(=O)CC(COC(=O)CCCCCCCC)COC(=O)CCCCCCCC)CN1C(=O)OCCN(C)C [CICL-207, 2-(2-(((2S,4R)-1-((2-(dimethylamino)ethoxy)carbonyl)-4-((4-(nonanoyloxy)-3((nonanoyloxy)methyl)butanoyl)oxy)pyrrolidin-2-yl)methoxy)-2-oxoethyl)propane-1,3-diyl dinonanoate]
bioluminescence in non-target organs [2]: generally producing the least bioluminescence
tolerability [3]: well tolerated
single dose generally well tolerated [4]: at least 8 mg/kg
transfection rate for liver Kupffer cells (CD45+/CD11+) [5]: similarly low levels
effect of ionizable cationic lipid content (50%, 58%, 62%, 65%) on transfection rate (splenic T cells): greater for CICL-207 than for CICL-225 in splenic T cells; also recorded: decreased performance
performance of tLNP: transfection rate and expression level (MESF) (splenic T cells): best performing composition; also recorded: somewhat more desirable transfection rates

Structure (SMILES): CCCCCCCCC(=O)OCC(COC(=O)CCCCCCCC)CC(=O)O[C@H]1C=C[C@H](OC(=O)CC(COC(=O)CCCCCCCC)COC(=O)CCCCCCCC)CN(C(=O)OCCN(C)C)C1 (racemic) [CICL-218, (((Rel-(3S,6S)-1-((2-(dimethylamino)ethoxy)carbonyl)-2,3,6,7-tetrahydro-1H-azepine-3,6-diyl)bis(oxy))bis(2-oxoethane-2,1-diyl))bis(propane-2,1,3-triyl) tetranonanoate]
pKa [1, 7]: 6.07
pKa [1, 8]: 6.11
transfection rate in spleen T cells (splenic T cells): ca. 20%

Structure (SMILES): CCCCCCCCC(=O)OCC(COC(=O)CCCCCCCC)CC(=O)OC[C@@H]1C[C@@H](OC(=O)CC(COC(=O)CCCCCCCC)COC(=O)CCCCCCCC)CN1C(=O)OCCN1CCCCC1 [CICL-207-119]
measured pKa in formulation (prediction) [6]: close to the desired pKa=6-7 midpoint

Structure (SMILES): CCCCCCCCC(=O)OCC(COC(=O)CCCCCCCC)CC(=O)OCCN(CCOC(=O)CC(COC(=O)CCCCCCCC)COC(=O)CCCCCCCC)C(=O)OCCN(C)C [CICL-1, reference compound]
transfection rate for liver Kupffer cells (CD45+/CD11+) [5]: ~6%

Structure (SMILES): CCCCCCCCC(=O)OCC(COC(=O)CCCCCCCC)CC(=O)OC[C@H]1C[C@H](OC(=O)CC(COC(=O)CCCCCCCC)COC(=O)CCCCCCCC)CN1C(=O)OCCN(C)C [CICL-225, 2-(2-(((2R,4S)-1-((2-(dimethylamino)ethoxy)carbonyl)-4-((4-(nonanoyloxy)-3-((nonanoyloxy)methyl)butanoyl)oxy)pyrrolidin-2-yl)methoxy)-2-oxoethyl)propane-1,3-diyl dinonanoate]
effect of ionizable cationic lipid content (50%, 58%, 62%, 65%) on transfection rate (splenic T cells): greater in both types of liver cells

Structure (SMILES): CCCCCCCCC(=O)OCC(COC(=O)CCCCCCCC)CC(=O)OC[C@@H]1C[C@H](OC(=O)CC(COC(=O)CCCCCCCC)COC(=O)CCCCCCCC)CN1C(=O)OCCN(C)C [CICL-224, 2-(2-(((2S,4S)-1-((2-(dimethylamino)ethoxy)carbonyl)-4-((4-(nonanoyloxy)-3-((nonanoyloxy)methyl)butanoyl)oxy)pyrrolidin-2-yl)methoxy)-2-oxoethyl)propane-1,3-diyl dinonanoate]
pKa [1, 7]: 6.98
pKa [1, 8]: ~7
transfection rate in spleen T cells (splenic T cells): below 40%

Structure (SMILES): CCCCCCCCC(=O)OCC(COC(=O)CCCCCCCC)CC(=O)OC[C@@H]1C[C@@H](OC(=O)CC(COC(=O)CCCCCCCC)COC(=O)CCCCCCCC)CN1C(=O)OCCN(CCC)CCC [CICL-207-109]
measured pKa in formulation (prediction) [6]: close to the desired pKa=6-7 midpoint

Structure (SMILES): CCCCCCCCC(=O)OCC(COC(=O)CCCCCCCC)CC(=O)O[C@@H]1C[C@H](OC(=O)CC(COC(=O)CCCCCCCC)COC(=O)CCCCCCCC)CN(C(=O)OCCN(C)C)C1 [CICL-238, (((Rel-(3R,5S)-1-((2-(dimethylamino)ethoxy)carbonyl)piperidine-3,5-diyl)bis(oxy))bis(2-oxoethane-2,1-diyl))bis(propane-2,1,3-triyl) tetranonanoate]
pKa [1, 8]: 7.09
performance of tLNP: transfection rate and expression level (MESF) (splenic T cells): 3 of the 4 poorest performing tLNP

The next lines start with results.

pKa [1, 7]: 6.25
pKa [1, 8]: 6.25
Structure (SMILES): CCCCCCCCC(=O)OCC(COC(=O)CCCCCCCC)CC(=O)OC[C@@H]1C[C@H](OC(=O)CC(COC(=O)CCCCCCCC)COC(=O)CCCCCCCC)CN1C(=O)N1CCN(C)CC1 [CICL-239, 2-(2-(((2S,4S)-1-(4-methylpiperazine-1-carbonyl)-4-((4-(nonanoyloxy)-3-((nonanoyloxy)methyl)butanoyl)oxy)pyrrolidin-2-yl)methoxy)-2-oxoethyl)propane-1,3-diyl dinonanoate]

measured pKa in formulation (prediction) [6]: close to the desired pKa=6-7 midpoint
Structure (SMILES): CCCCCCCCC(=O)OCC(COC(=O)CCCCCCCC)CC(=O)OC[C@@H]1C[C@@H](OC(=O)CC(COC(=O)CCCCCCCC)COC(=O)CCCCCCCC)CN1C(=O)OCCN(C)c1ccncc1 [CICL-207-130]

measured pKa in formulation (prediction) [6]: close to the desired pKa=6-7 midpoint
Structure (SMILES): CCCCCCCCC(=O)OCC(COC(=O)CCCCCCCC)CC(=O)OC[C@@H]1C[C@@H](OC(=O)CC(COC(=O)CCCCCCCC)COC(=O)CCCCCCCC)CN1C(=O)OCCCN1CCC(O)CC1 [CICL-207-122]

measured pKa (in tLNP formulation) [1]: fell outside the range of 6 to 7
Structure (SMILES): CCCCCCCCC(=O)OCC(COC(=O)CCCCCCCC)CC(=O)OC[C@@H]1C[C@@H](OC(=O)CC(COC(=O)CCCCCCCC)COC(=O)CCCCCCCC)CN1C(=O)SCCN(C)C [CICL-217, 2-(2-(((2S,4R)-1-(((2-(dimethylamino)ethyl)thio)carbonyl)-4-((4-(nonanoyloxy)-3-((nonanoyloxy)methyl)butanoyl)oxy)pyrrolidin-2-yl)methoxy)-2-oxoethyl)propane-1,3-diyl dinonanoate]
performance of tLNP: transfection rate and expression level (MESF) (splenic T cells): 3 of the 4 poorest performing tLNP

measured pKa (in tLNP formulation) [1]: fell outside the range of 6 to 7
Structure (SMILES): CCCCCCCCC(=O)OCC(COC(=O)CCCCCCCC)CC(=O)O[C@H]1CN(C(=O)OCCN(C)C)C[C@H]1OC(=O)CC(COC(=O)CCCCCCCC)COC(=O)CCCCCCCC [CICL-216, (((Rel-(3S,4R)-1-((2-(dimethylamino)ethoxy)carbonyl)pyrrolidine-3,4-diyl)bis(oxy))bis(2-oxoethane-2,1-diyl))bis(propane-2,1,3-triyl) tetranonanoate]
performance of tLNP: transfection rate and expression level (MESF) (splenic T cells): 3 of the 4 poorest performing tLNP
